≈ marks a conversion by molar mass, not a printed value.
How the values were obtained:
[1] = system: Escherichia coli; assay: Antibacterial activity against Escherichia coli JM109 after 24 hrs by microbroth dilution method; format: functional; conditions: JM109, 24 h
[2] = system: Bacillus; assay: Antibacterial activity against Bacillus proteus ATCC 13315 after 24 hrs by microbroth dilution method; format: functional; conditions: ATCC 13315, 24 h
[3] = system: Pseudomonas aeruginosa; assay: Antibacterial activity against Pseudomonas aeruginosa ATCC 27853 after 24 hrs by microbroth dilution method; format: functional; conditions: ATCC 27853, 24 h
[4] = system: Salmonella enterica; assay: Antibacterial activity against Salmonella enterica ATCC 14028 after 24 hrs by microbroth dilution method; format: functional; conditions: ATCC 14028, 24 h
[5] = system: Staphylococcus aureus; assay: Antibacterial activity against methicillin-resistant Staphylococcus aureus N315 after 24 hrs by microbroth dilution method; format: functional; conditions: N315, 24 h
[6] = system: Staphylococcus aureus; assay: Antibacterial activity against Staphylococcus aureus ATCC 25923 after 24 hrs by microbroth dilution method; format: functional; conditions: ATCC 25923, 24 h
[7] = system: Bacillus spizizenii; assay: Antibacterial activity against Bacillus subtilis ATCC 6633 after 24 hrs by microbroth dilution method; format: functional; conditions: ATCC 6633, 24 h
[8] = system: Micrococcus luteus; assay: Antibacterial activity against Micrococcus luteus ATCC 4698 after 24 hrs by microbroth dilution method; format: functional; conditions: NCTC 2665, 24 h
[9] = system: Cyberlindnera jadinii; assay: Antifungal activity against Candida utilis ATCC 9950 after 24 hrs by microbroth dilution method; format: functional; conditions: Williopsis jadinii, ATCC 9950, 24 h
[10] = system: Aspergillus flavus; assay: Antifungal activity against Aspergillus flavus ATCC 204304 after 24 hrs by microbroth dilution method; format: functional; conditions: ATCC 204304, 24 h
[11] = system: Saccharomyces cerevisiae; assay: Antifungal activity against Saccharomyces cerevisiae ATCC 9763 after 24 hrs by microbroth dilution method; format: functional; conditions: ATCC 9763, 24 h
[12] = system: Candida albicans; assay: Antifungal activity against Candida albicans ATCC 10231 after 24 hrs by microbroth dilution method; format: functional; conditions: ATCC 10231, 24 h
[13] = system: Pichia norvegensis; assay: Antifungal activity against Candida mycoderma ATCC 9888 after 24 hrs by microbroth dilution method; format: functional; conditions: ATCC 9888, 24 h
[14] = Ionization constant, pKa of the compound by UV spectroscopic analysis; format: physicochemical

Question: For `Cc1nc(N2CCCCC2)c([N+](=O)[O-])n1CC(O)CN1CCN(c2cc3c(cc2F)c(=O)c(C(=O)O)cn3C2CC2)CC1` (centres undefined), which MIC [1] is on record?
Answer: 128 µg/mL (≈ 214 µM)

Question: And the MIC [2]?
Answer: 128 µg/mL (≈ 214 µM)

Question: What about the MIC [3] of the same compound?
Answer: 1 µg/mL (≈ 1.67 µM)

Question: And the MIC [4]?
Answer: 64 µg/mL (≈ 107 µM)

Question: And the MIC [5]?
Answer: 32 µg/mL (≈ 53.5 µM)

Question: What about the MIC [6] of the same compound?
Answer: 128 µg/mL (≈ 214 µM)

Question: And the MIC [7]?
Answer: 32 µg/mL (≈ 53.5 µM)

Question: And the MIC [8]?
Answer: 64 µg/mL (≈ 107 µM)

Question: What about the MIC [9] of the same compound?
Answer: 32 µg/mL (≈ 53.5 µM)

Question: And the MIC [10]?
Answer: 8 µg/mL (≈ 13.4 µM)

Question: What about the MIC [11] of the same compound?
Answer: 64 µg/mL (≈ 107 µM)

Question: What about the MIC [12] of the same compound?
Answer: 64 µg/mL (≈ 107 µM)

Question: And the MIC [13]?
Answer: 64 µg/mL (≈ 107 µM)

Question: And the pKa [14]?
Answer: 6.9

Question: What does the source list for `CCn1cc(C(=O)O)c(=O)c2cc(F)c(N3CCN(CC4CO4)CC3)cc21` (centres undefined)?
Answer: MIC [1]: 2 µg/mL (≈ 5.33 µM); MIC [2]: 4 µg/mL (≈ 10.7 µM); MIC [3]: 16 µg/mL (≈ 42.6 µM); MIC [4]: 16 µg/mL (≈ 42.6 µM); MIC [5]: 2 µg/mL (≈ 5.33 µM); MIC [6]: 8 µg/mL (≈ 21.3 µM); MIC [7]: 64 µg/mL (≈ 170 µM); MIC [8]: 8 µg/mL (≈ 21.3 µM); MIC [9]: 8 µg/mL (≈ 21.3 µM); MIC [10]: 1 µg/mL (≈ 2.66 µM); MIC [11]: 1 µg/mL (≈ 2.66 µM); MIC [12]: 4 µg/mL (≈ 10.7 µM); MIC [13]: 1 µg/mL (≈ 2.66 µM)

Question: With `Cc1nc(N2CCOCC2)c([N+](=O)[O-])n1CC(O)CNC1CCN(c2c(F)cc3c(=O)c(C(=O)O)cn(C4CC4)c3c2Cl)C1` (centres undefined) as the compound, how does the MIC [1] read?
Answer: 0.5 µg/mL (≈ 0.789 µM)

Question: What about the MIC [2] of the same compound?
Answer: 0.25 µg/mL (≈ 0.394 µM)

Question: And the MIC [3]?
Answer: 0.25 µg/mL (≈ 0.394 µM)

Question: And the MIC [4]?
Answer: 2 µg/mL (≈ 3.15 µM)

Question: And the MIC [5]?
Answer: 0.25 µg/mL (≈ 0.394 µM)

Question: What about the MIC [6] of the same compound?
Answer: 0.5 µg/mL (≈ 0.789 µM)

Question: And the MIC [7]?
Answer: 4 µg/mL (≈ 6.31 µM)

Question: And the MIC [8]?
Answer: 2 µg/mL (≈ 3.15 µM)

Question: And the MIC [9]?
Answer: 0.5 µg/mL (≈ 0.789 µM)

Question: And the MIC [10]?
Answer: 1 µg/mL (≈ 1.58 µM)

Question: And the MIC [11]?
Answer: 1 µg/mL (≈ 1.58 µM)

Question: And the MIC [12]?
Answer: 2 µg/mL (≈ 3.15 µM)

Question: What about the MIC [13] of the same compound?
Answer: 16 µg/mL (≈ 25.2 µM)

Question: What about the pKa [14] of the same compound?
Answer: 6.57

Question: Which MIC [9] does the source give for `OC(Cn1cncn1)(Cn1cncn1)c1ccc(F)cc1F` [FLUCONAZOLE] here?
Answer: 8 µg/mL (≈ 26.1 µM)

Question: What about the MIC [10] of the same compound?
Answer: 256 µg/mL (≈ 836 µM)

Question: And the MIC [11]?
Answer: 16 µg/mL (≈ 52.2 µM)

Question: What about the MIC [12] of the same compound?
Answer: 1 µg/mL (≈ 3.27 µM)

Question: What about the MIC [13] of the same compound?
Answer: 4 µg/mL (≈ 13.1 µM)

Question: Which MIC [1] does the source give for `CCn1cc(C(=O)O)c(=O)c2cc(F)c(N3CCN(CC(O)Cn4c(C)nc(N5CCCCC5)c4[N+](=O)[O-])CC3)cc21` (centres undefined) here?
Answer: 256 µg/mL (≈ 437 µM)

Question: What about the MIC [2] of the same compound?
Answer: 128 µg/mL (≈ 219 µM)

Question: What about the MIC [3] of the same compound?
Answer: 4 µg/mL (≈ 6.83 µM)

Question: What about the MIC [4] of the same compound?
Answer: 128 µg/mL (≈ 219 µM)

Question: What about the MIC [5] of the same compound?
Answer: 64 µg/mL (≈ 109 µM)

Question: What about the MIC [6] of the same compound?
Answer: 64 µg/mL (≈ 109 µM)

Question: What about the MIC [7] of the same compound?
Answer: 128 µg/mL (≈ 219 µM)

Question: And the MIC [8]?
Answer: 128 µg/mL (≈ 219 µM)

Question: What about the MIC [9] of the same compound?
Answer: 32 µg/mL (≈ 54.6 µM)

Question: What about the MIC [10] of the same compound?
Answer: 32 µg/mL (≈ 54.6 µM)

Question: What about the MIC [11] of the same compound?
Answer: 32 µg/mL (≈ 54.6 µM)

Question: And the MIC [12]?
Answer: 32 µg/mL (≈ 54.6 µM)

Question: And the MIC [13]?
Answer: 128 µg/mL (≈ 219 µM)

Question: What about the pKa [14] of the same compound?
Answer: 6.75

Question: Which results are given for `NC1CCN(c2c(F)cc3c(=O)c(C(=O)O)cn(C4CC4)c3c2Cl)C1` (centres undefined) [CLINAFLOXACIN]?
Answer: MIC [1]: 1 µg/mL (≈ 2.73 µM); MIC [2]: 0.5 µg/mL (≈ 1.37 µM); MIC [3]: 1 µg/mL (≈ 2.73 µM); MIC [4]: 1 µg/mL (≈ 2.73 µM); MIC [5]: 1 µg/mL (≈ 2.73 µM); MIC [6]: 0.5 µg/mL (≈ 1.37 µM); MIC [7]: 0.5 µg/mL (≈ 1.37 µM); MIC [8]: 0.5 µg/mL (≈ 1.37 µM)

Question: With `O=C(O)c1cn(C2CC2)c2cc(N3CCNCC3)c(F)cc2c1=O` [CIPROFLOXACIN] as the compound, how does the MIC [2] read?
Answer: 1 µg/mL (≈ 3.02 µM)

Question: What about the MIC [3] of the same compound?
Answer: 1 µg/mL (≈ 3.02 µM)

Question: And the MIC [4]?
Answer: 1 µg/mL (≈ 3.02 µM)

Question: And the MIC [7]?
Answer: 1 µg/mL (≈ 3.02 µM)

Question: Which results are given for `Cc1nc(N2CCCC2)c([N+](=O)[O-])n1CC(O)CN1CCN(c2cc3c(cc2F)c(=O)c(C(=O)O)cn3C2CC2)CC1` (centres undefined)?
Answer: MIC [1]: 64 µg/mL (≈ 110 µM); MIC [2]: 32 µg/mL (≈ 54.8 µM); MIC [3]: 2 µg/mL (≈ 3.43 µM); MIC [4]: 32 µg/mL (≈ 54.8 µM); MIC [5]: 16 µg/mL (≈ 27.4 µM); MIC [6]: 64 µg/mL (≈ 110 µM); MIC [7]: 16 µg/mL (≈ 27.4 µM); MIC [8]: 128 µg/mL (≈ 219 µM); MIC [9]: 16 µg/mL (≈ 27.4 µM); MIC [10]: 32 µg/mL (≈ 54.8 µM); MIC [11]: 32 µg/mL (≈ 54.8 µM); MIC [12]: 64 µg/mL (≈ 110 µM); MIC [13]: 32 µg/mL (≈ 54.8 µM); pKa [14]: 6.72

Question: For `CCn1cc(C(=O)O)c(=O)c2cc(F)c(N3CCNCC3)cc21` [NORFLOXACIN], which MIC [1] is on record?
Answer: 2 µg/mL (≈ 6.26 µM)

Question: And the MIC [2]?
Answer: 8 µg/mL (≈ 25.1 µM)

Question: And the MIC [3]?
Answer: 4 µg/mL (≈ 12.5 µM)

Question: And the MIC [4]?
Answer: 1 µg/mL (≈ 3.13 µM)

Question: What about the MIC [5] of the same compound?
Answer: 2 µg/mL (≈ 6.26 µM)

Question: And the MIC [6]?
Answer: 2 µg/mL (≈ 6.26 µM)

Question: And the MIC [7]?
Answer: 1 µg/mL (≈ 3.13 µM)

Question: And the MIC [8]?
Answer: 2 µg/mL (≈ 6.26 µM)
